Reference: US10227331B2 (priority 2015, dated 2019)
Values after ≈ are worked out from the molar mass of the structure shown. Where two headings read alike, the source gives them in different places.

Legend:
[1] = tested on: MB 5919 (OprD+, efflux+); type: cell-based, Pseudomonas aeruginosa
[2] = tested on: MB 9799 (MB 5890 Trans IMP1 plasmid, efflux-); type: cell-based, Pseudomonas aeruginosa; settings: CL 5673 (IMP-1) plasmid
[3] = tested on: MB 5919 Trans pFIp-Vim2 plasd (efflux+); type: cell-based, Pseudomonas aeruginosa
[4] = tested on: MB 5890 Trans pFIp-Vim2 plasd (efflux-); type: cell-based, Pseudomonas aeruginosa
[5] = tested on: MB 5890 (OprD+, efflux-); type: cell-based, Pseudomonas aeruginosa
[6] = tested on: MB 9862 (MB 5890 Trans pFIp-Vim1, efflux-); type: cell-based, Pseudomonas aeruginosa
[7] = tested on: MB 9861 (MB 5919 Trans pFIp-Vim1 plasmid, efflux+); type: cell-based, Pseudomonas aeruginosa
[8] = molecular target: VIM-1 (Pseudomonas aeruginosa (strain ATCC 15692 / DSM 22644 / CIP 104116 / JCM 14847 / LMG 12228 / 1C / PRS 101 / PAO1), UniProt A0A0F7KYQ8); assay: biochemical; settings: CCF2-FA substrate, 2 hours at 25° C
Method in brief: (§1)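 Inhibitor was mixed with the metallo-β-lactamase and CCF2-FA. After 2 hours at 25° C, fluorescence of the coumarin–fluorescein cephalosporin substrate was read. IC50 was calculated with a 4-parameter fit.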

[9] = molecular target: NDM-1 (Klebsiella pneumoniae, UniProt C7C422); assay: biochemical; type: biochemical; settings: CCF2-FA substrate, 2 hours at 25° C; read-out: NDM-1 IC50
Sequence of NDM-1 (C7C422 whole entry, looked up, species assumed): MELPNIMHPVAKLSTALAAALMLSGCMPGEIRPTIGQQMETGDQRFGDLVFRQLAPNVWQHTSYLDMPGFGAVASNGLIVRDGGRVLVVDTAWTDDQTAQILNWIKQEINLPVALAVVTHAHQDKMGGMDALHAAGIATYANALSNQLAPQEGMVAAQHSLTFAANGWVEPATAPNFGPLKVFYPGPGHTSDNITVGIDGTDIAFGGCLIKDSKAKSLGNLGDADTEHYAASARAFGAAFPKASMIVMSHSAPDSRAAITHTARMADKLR
Method in brief: as §1

[10] = molecular target: IMP-1 (Serratia marcescens, UniProt P52699); assay: biochemical; type: biochemical
Sequence of IMP-1 (P52699 whole entry, looked up, species assumed): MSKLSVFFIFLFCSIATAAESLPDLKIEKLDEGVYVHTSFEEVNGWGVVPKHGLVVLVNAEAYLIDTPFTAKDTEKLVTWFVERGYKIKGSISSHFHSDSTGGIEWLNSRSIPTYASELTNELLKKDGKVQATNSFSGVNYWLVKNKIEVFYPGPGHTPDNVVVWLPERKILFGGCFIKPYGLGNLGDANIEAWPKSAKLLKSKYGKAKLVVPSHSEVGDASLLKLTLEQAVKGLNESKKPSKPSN
Method in brief: as §1

[11] = tested on: P. aeruginosa expressing IMP-1, efflux+ (MB9798); type: cell-based, Pseudomonas aeruginosa; settings: for P. aeruginosa expressing IMP-1, efflux+ (MB9798) MITC95: imipenem at 2 μg/mL, in the presence of a class A, C, D serine β-lactamase inhibitor closely related to relebactam; for Efflux ratio: ratio MITC95 PA_9798/MITC95 PA_9799
Text: (§2) The strain background is Pseudomonas aeruginosa PAO1.

[12] = tested on: P. aeruginosa expressing IMP-1, efflux− (MB9799); assay: Efflux: concentration of MBL inhibitor which restores susceptibility to imipenem; type: cell-based, Pseudomonas aeruginosa; settings: imipenem at 2 μg/mL, in the presence of a class A, C, D serine β-lactamase inhibitor closely related to relebactam
Text: as §2

[13] = tested on: Klebsiella pneumoniae expressing VIM-1 (IHMA599644); type: cell-based; settings: with imipenem 1 μg/ml, 95% inhibition of bacterial growth; for Klebsiella pneumoniae MITC95: VIM-1 (IHMA599644)
Method in brief: (§3)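 Colonies from overnight 35 °C blood-agar cultures were suspended in saline, diluted 1:100 into 1.1× CAMHB and exposed to test compound with or without imipenem at 1 μg/ml. After 22–24 h at 35 °C, absorbance was read to find the concentration restoring imipenem susceptibility.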

[14] = tested on: Escherichia coli expressing NDM-1 (CLB30005, CLB30016); type: cell-based; settings: with imipenem 1 μg/ml, 95% inhibition of bacterial growth; for Escherichia coli MITC95: NDM-1 (CLB30016)
Method in brief: as §3

[15] = tested on: Serratia marcescens expressing IMP-1 (CL5741); type: cell-based; settings: with imipenem 1 μg/ml, 95% inhibition of bacterial growth; for Serratia marcescens MITC95: IMP-1 (CL5741)
Method in brief: as §3

[16] = CCF2-FA substrate, 2 hours at 25° C, read-out: IMP-1 IC50

| SMILES | MIC [1] [µg/mL] | MIC [2] [µg/mL] | MIC [3] [µg/mL] | MIC [4] [µg/mL] | MIC [5] [µg/mL] | MIC [6] [µg/mL] | MIC [7] [µg/mL] | IC50 [8] [pM] | IC50 [9] [pM] | IC50 [10, 16] [pM] | P. aeruginosa expressing IMP-1, efflux+ (MB9798) MITC95 [11] [µM] | Efflux ratio [11] | P. aeruginosa expressing IMP-1, efflux− (MB9799) MITC95 [12] [µM] | Klebsiella pneumoniae MITC95 [13] [µM] | Escherichia coli MITC95 [14] [µM] | Serratia marcescens MITC95 [15] [µM] | IC50 [10] [pM] | Klebsiella pneumoniae expressing VIM-1 (IHMA599644) MITC95 [13] [µM] | Escherichia coli expressing NDM-1 (CLB30016) MITC95 [14] [µM] | Serratia marcescens expressing IMP-1 (CL5741) MITC95 [15] [µM] |
| --- | --- | --- | --- | --- | --- | --- | --- | --- | --- | --- | --- | --- | --- | --- | --- | --- | --- | --- | --- | --- |
| CC(C)(O/N=C(\C(=O)N[C@@H]1C(=O)N2C(C(=O)[O-])=C(C[n+]3ccccc3)CS[C@H]12)c1csc(N)n1)C(=O)O [CAZ, ceftazidime] | 1 (≈ 1.83 µM) | 256 (≈ 468 µM) | 128 (≈ 234 µM) | 64 (≈ 117 µM) | 0.5 (≈ 0.915 µM) | >256 | >256 |  |  |  |  |  |  |  |  |  |  |  |  |  |
| CCN1CCN(C(=O)N[C@@H](C(=O)N[C@@H]2C(=O)N3[C@@H]2SC(C)(C)[C@@H]3C(=O)O)c2ccccc2)C(=O)C1=O [Pipercillin, piperacillin] | 2 (≈ 3.86 µM) | 4 (≈ 7.73 µM) | >256 | 128 (≈ 247 µM) | 1 (≈ 1.93 µM) | 128 (≈ 247 µM) | >256 |  |  |  |  |  |  |  |  |  |  |  |  |  |
| C[C@@H](O)[C@H]1C(=O)N2C(C(=O)O)=C(SCCN=CN)C[C@H]12 [Imipenem, imipenem] | 4 (≈ 13.4 µM) | 32 (≈ 107 µM) | >64 | 32 (≈ 107 µM) | 2 (≈ 6.68 µM) | 64 (≈ 214 µM) | >64 |  |  |  |  |  |  |  |  |  |  |  |  |  |
| C[C@@H](O)[C@H]1C(=O)N2C(C(=O)O)=C(S[C@@H]3CN[C@H](C(=O)N(C)C)C3)[C@H](C)[C@H]12 [Meropenem, meropenem] | 2 (≈ 5.22 µM) | 64 (≈ 167 µM) | >64 | 32 (≈ 83.4 µM) | 0.5 (≈ 1.3 µM) | 64 (≈ 167 µM) | >64 |  |  |  |  |  |  |  |  |  |  |  |  |  |
| CN(C)CCS(=O)(=O)c1ccc(-c2cccc3sc(N)nc23)c(-c2nn[nH]n2)c1S(N)(=O)=O [Example 326, 3-(2-aminobenzo[d]thiazol-4-yl)-6-((2-(dimethylamino)ethyl)sulfonyl)-2-(2H-tetrazol-5-yl)benzenesulfonamide] |  |  |  |  |  |  |  | 167 | 76.1 | 248 | 1.563 | 1.00 | 1.563 | 6.25 | 3.125 | 3.125 |  |  |  |  |
| Cn1c(N)nc2c(-c3ccc(S(=O)(=O)CCN)c(S(N)(=O)=O)c3-c3nn[nH]n3)cccc21 [Example 79, 3-(2-amino-1-methyl-1H-benzo[d]imidazol-4-yl)-6-(2-aminoethylsulfonyl)-2-(2H-tetrazol-5-yl)benzenesulfonamide] |  |  |  |  |  |  |  | 327 | 354 |  | 0.8906 | 1.39 | 0.6406 |  |  |  | 241 | 1.281 | 0.25 | 0.8906 |
| N#Cc1cccc(-c2ccc(S(=O)(=O)C3CNC3)c(S(N)(=O)=O)c2-c2nn[nH]n2)c1N [Example 196, 2′-amino-4-(azetidin-3-ylsulfonyl)-3′-cyano-2-(2H-tetrazol-5-yl)-[1,1′-biphenyl]-3-sulfonamide] |  |  |  |  |  |  |  | 233 | 315 | 1540 | 12.5 | 16.00 | 0.7813 |  |  |  |  | 1.563 | 0.7813 | 1.563 |
| NCCS(=O)(=O)c1ccc(-c2cccc3nc(C(=O)O)nn23)c(-c2nnn[nH]2)c1S(N)(=O)=O [Example 304, 5-(4-((2-aminoethyl)sulfonyl)-3-sulfamoyl-2-(1H-tetrazol-5-yl)phenyl)-[1,2,4]triazolo [1,5-a]pyridine-2-carb oxylic Acid] |  |  |  |  |  |  |  | 478 | 214 | 5360 | 25 | 2.00 | 12.5 | 50 | 6.25 | 6.25 |  |  |  |  |
| Nc1nc2c(-c3ccc(S(=O)(=O)C4CNC4)c(S(N)(=O)=O)c3-c3nn[nH]n3)cccc2[nH]1 [Example 43, 3-(2-amino-1H-benzo[d]imidazol-4-yl)-6-(azetidin-3-ylsulfonyl)-2-(2H-tetrazol-5-yl)benzenesulfonamide] |  |  |  |  |  |  |  | 258 | 83.5 | 828 | 0.6081 | 0.95 | 0.6406 |  |  |  |  | 1.151 | 0.2902 | 0.7982 |
| Nc1nc2c(-c3ccc(S(=O)(=O)CC(N)CO)c(S(N)(=O)=O)c3-c3nn[nH]n3)cccc2s1 (stereo not shown) [Example 96, 6-(2-amino-3-hydroxypropylsulfonyl)-3-(2-aminobenzo[d]thiazol-4-yl)-2-(2H-tetrazol-5-yl)benzenesulfonamide] |  |  |  |  |  |  |  | 185 | 122 | 265 | 0.7813 | 0.50 | 1.563 |  |  |  |  | 3.125 | 1.563 | 1.563 |
| CS(=O)(=O)c1ccc(-c2ccc(N)nc2)c(-c2nn[nH]n2)c1S(N)(=O)=O [Example 237, 3-(6-Aminopyridin-3-yl)-6-(methylsulfonyl)-2-(2H-tetrazol-5-yl)benzenesulfonamide] |  |  |  |  |  |  |  | 754 | 5810 | 630 | 25 | 15.99 | 1.563 |  |  |  |  | 6.25 | 0.3906 | 1.563 |
| NCCS(=O)(=O)c1ccc(-c2ccc(C(F)(F)F)c3sc(N)nc23)c(-c2nn[nH]n2)c1S(N)(=O)=O [Example 72, 3-(2-amino-7-(trifluoromethyl)benzo[d]thiazol-4-yl)-6-(2-aminoethylsulfonyl)-2-(2H-tetrazol-5-yl)benzenesulfonamide] |  |  |  |  |  |  |  | 286 | 153 | 322 | 3.125 | 4.00 | 0.7813 |  |  |  |  | 1.563 | 0.7813 | 1.563 |
| NS(=O)(=O)c1c(S(=O)(=O)C2CNC2)ccc(-c2cccc3ncccc23)c1-c1nnn[nH]1.O=C(O)C(F)(F)F [Example 118, 3-((4-(quinolin-5-yl)-2-sulfamoyl-3-(1H-tetrazol-5-yl)phenyl)sulfonyl)azetidin-1-ium 2,2,2-trifluoroacetate] |  |  |  |  |  |  |  | 388 | 145 | 1420 | 12.5 | 4.00 | 3.125 |  |  |  |  | 6.25 | 3.125 | 6.25 |
